Test systems include UACC-62; HOP-62; M19-MEL; HCC 2998; SF-539; HOP-18; OVCAR-4; NCI/ADR-RES; SF-268; OVCAR-5; DMS-114; SK-MEL-2; RPMI-8226; CCRF-CEM; MCF7; M14; SR; ACHN; LXFL 529; RXF 631.
What all share (assay): NCI anticancer screen, dose series, 48 h

Structures are written as SMILES.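 Cultured in 96-well plates, cells were exposed to test compound for 48 hours across five concentrations. GI50 is the concentration that inhibits growth by half.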 Active and inactive are the calls of the source. Cut-off read from the data, not from the text of the source: active = GI50 up to about 1.1 µM and inactive = higher. A value given as a limit tells only on which side of the number the result lay.

Take `CSCC[C@@H](NC(=O)[C@H](CC(C)C)NC(=O)C(Cc1cnc[nH]1)NC(=O)CNC(=O)[C@@H](NC(=O)[C@H](C)NC(=O)[C@H](Cc1cn(C=O)c2ccccc12)NC(=O)[C@H](CCC(N)=O)NC(=O)[C@@H](N)CC(N)=O)C(C)C)C(N)=O` (some centres not stated): the GI50 in the assay on UACC-62, with HOP-62, with M19-MEL, with HCC 2998, in the assay on SF-539 and with HOP-18 was > 100 µM (inactive) throughout. The GI50 in the assay on OVCAR-4, with NCI/ADR-RES, in the assay with SF-268, in the assay on OVCAR-5, with DMS-114 and in the assay with SK-MEL-2 was > 100 µM (inactive) in each case. In addition, the GI50 in the assay with RPMI-8226, in the assay on CCRF-CEM and in the assay with MCF7 was > 100 µM (inactive) each time.
Turning to `O=S(=O)(c1ccc(I)cc1)N(c1ccccc1)S(=O)(=O)C(F)(F)C(F)(F)C(F)(F)C(F)(F)F`, the GI50 with UACC-62 is 25.5 µM (inactive); in the assay with HOP-62 it was 24.3 µM (inactive); in the assay on M14 it was 34.8 µM (inactive); with SR, 56.5 µM (inactive); with SF-539, 35.6 µM (inactive); with ACHN, 58.2 µM (inactive). The GI50 with OVCAR-4 is 24.5 µM (inactive); in the assay with NCI/ADR-RES, 43.3 µM (inactive); in the assay on OVCAR-5, 24.9 µM (inactive); in the assay on SK-MEL-2, 29.2 µM (inactive); in the assay with RPMI-8226, 42.7 µM (inactive); with CCRF-CEM it was 40.9 µM (inactive). Further, in the assay on MCF7, the GI50 was 26.9 µM (inactive).
`Cc1ccc(SSCCCCCS(=O)O)cc1`: the GI50 in the assay with UACC-62 was 23.5 µM (inactive); with HOP-62, 29.9 µM (inactive); in the assay on M19-MEL, 37.6 µM (inactive); with LXFL 529, 14.6 µM (inactive); with M14 it was 40.4 µM (inactive); in the assay on HCC 2998, 46.7 µM (inactive). Moreover, the GI50 with SR was 4.62 µM (inactive); in the assay on SF-539, 16.2 µM (inactive); with ACHN, 57.7 µM (inactive); with OVCAR-4 it was 40 µM (inactive); in the assay with SF-268, 14.6 µM (inactive); in the assay with OVCAR-5 it was > 100 µM (inactive). Further, the GI50 is 21 µM (inactive) with DMS-114; 25.9 µM (inactive) in the assay with RXF 631; 25.8 µM (inactive) with SK-MEL-2; 24.9 µM (inactive) in the assay with RPMI-8226; 4.68 µM (inactive) in the assay with CCRF-CEM.
Regarding `CC(=O)Oc1ccccc1[C@H]1CC(=O)C[C@H](c2ccccc2OC(C)=O)C12C(=O)c1ccccc1C2=O`, the GI50 in the assay on UACC-62 is 13 µM (inactive); in the assay with HOP-62, 30.4 µM (inactive); in the assay with M14, 19.9 µM (inactive); in the assay with HCC 2998, 25.5 µM (inactive); with SR, 79.4 µM (inactive); with OVCAR-4, 65.6 µM (inactive). Also, the GI50 with NCI/ADR-RES is 29.2 µM (inactive); in the assay on OVCAR-5, 44.2 µM (inactive); in the assay with SK-MEL-2, 23.5 µM (inactive); in the assay on RPMI-8226, 59.6 µM (inactive); in the assay on CCRF-CEM, 10.9 µM (inactive).
Turning to `c1ccc([P+](Cc2csnn2)(c2ccccc2)c2ccccc2)cc1`, the GI50 with UACC-62 is 57.8 µM (inactive); in the assay with HOP-62 it was > 100 µM (inactive); in the assay on M19-MEL, > 100 µM (inactive); in the assay on LXFL 529, > 100 µM (inactive); with M14, > 100 µM (inactive); in the assay on HCC 2998, > 100 µM (inactive). In addition, the GI50 with SR, with SF-539, in the assay with ACHN, in the assay with HOP-18, in the assay on OVCAR-4 and in the assay on SF-268 was > 100 µM (inactive) throughout. Also, the GI50 with OVCAR-5 was > 100 µM (inactive); in the assay with DMS-114, 64 µM (inactive); in the assay on SK-MEL-2 it was > 100 µM (inactive); with RPMI-8226 it was > 100 µM (inactive); in the assay with CCRF-CEM, > 100 µM (inactive).
For the compound `COc1ccc(CCn2nccc2C)cc1`, the GI50 in the assay on UACC-62, in the assay with HOP-62, in the assay with M14, in the assay with SR, with SF-539 and in the assay with ACHN was > 100 µM (inactive) each time. Moreover, the GI50 in the assay with OVCAR-4, in the assay with NCI/ADR-RES, in the assay with SF-268, in the assay with OVCAR-5, in the assay on RPMI-8226 and with CCRF-CEM was > 100 µM (inactive) throughout. In addition, the GI50 with MCF7 is > 100 µM (inactive).
On to `COc1ccccc1-c1cc(O)c2cc(C)cnc2n1`, for which the GI50 with UACC-62 is 31.8 µM (inactive); in the assay with HOP-62, 42.9 µM (inactive); with M14, 37.9 µM (inactive); in the assay on HCC 2998, 62.1 µM (inactive); in the assay with SR it was > 100 µM (inactive); in the assay with SF-539, 38.5 µM (inactive). Further, the GI50 is 68.7 µM (inactive) in the assay with ACHN; > 100 µM (inactive) in the assay on OVCAR-4; 15 µM (inactive) in the assay with NCI/ADR-RES; 52.7 µM (inactive) with SF-268; 80.5 µM (inactive) in the assay with OVCAR-5; 25.2 µM (inactive) in the assay with SK-MEL-2. The figures for the GI50 in the assay with RPMI-8226, with CCRF-CEM and in the assay with MCF7 were 30.4 µM (inactive), 17.2 µM (inactive) and 47.5 µM (inactive), respectively.
`NCCCCCC(CCN)SCC1OC(n2cnc3c(N)ncnc32)C(O)C1O` (configuration not stated): the GI50 was 537 µM (inactive) with UACC-62; > 809 µM (inactive) in the assay on HOP-62; > 843 µM (inactive) with M19-MEL; > 1150 µM (inactive) with HCC 2998; 483 µM (inactive) with SF-539; 6.76 µM (inactive) in the assay on HOP-18. Moreover, the GI50 with OVCAR-4 is > 1440 µM (inactive); with NCI/ADR-RES, > 948 µM (inactive); with SF-268, 1460 µM (inactive); in the assay on OVCAR-5, > 1500 µM (inactive); with DMS-114, 339 µM (inactive); with SK-MEL-2, > 1500 µM (inactive). Moreover, the GI50 in the assay with RPMI-8226 is 292 µM (inactive); in the assay on CCRF-CEM, 891 µM (inactive); in the assay on MCF7 it was > 1500 µM (inactive).
`Cc1ccc(N2Cc3c(ccc4ccccc34)OP2(=S)N2CCCC2)cc1` (configuration not stated): the GI50 in the assay with UACC-62, in the assay with HOP-62, in the assay with M19-MEL, in the assay with HCC 2998, with SF-539 and in the assay with HOP-18 was > 100 µM (inactive) in each case. Also, the GI50 was > 100 µM (inactive) with OVCAR-4; > 100 µM (inactive) with NCI/ADR-RES; > 100 µM (inactive) with SF-268; > 100 µM (inactive) with OVCAR-5; > 100 µM (inactive) with SK-MEL-2; > 22 µM (inactive) with RPMI-8226. Further, the GI50 in the assay with CCRF-CEM and in the assay on MCF7 was > 100 µM (inactive) throughout.
For `O=C(OCCO)C1CC2CC1C1(C2)OCCO1` (configuration not stated), the GI50 in the assay with UACC-62, in the assay on HOP-62, in the assay with M19-MEL, in the assay with LXFL 529, in the assay on M14 and in the assay on SF-539 was > 100 µM (inactive) in each case. The GI50 in the assay on ACHN, in the assay with HOP-18, in the assay on OVCAR-4, with SF-268, in the assay with OVCAR-5 and in the assay on DMS-114 was > 100 µM (inactive) each time. Further, the GI50 in the assay on SK-MEL-2, in the assay on RPMI-8226 and with CCRF-CEM was > 100 µM (inactive) each time.
Regarding `Cc1n(CC(=O)c2ccc([N+](=O)[O-])cc2)c2c([n+]1CC(C)C)C(=O)c1ccccc1C2=O`, the GI50 in the assay on UACC-62 was < 0.0334 µM (active); in the assay on HOP-62 it was 0.29 µM (active); with SF-539, < 0.01 µM (active); with HOP-18, < 0.0184 µM (active); in the assay with OVCAR-4, < 0.0178 µM (active); in the assay on SF-268, < 0.01 µM (active). Besides, the GI50 in the assay with OVCAR-5 was < 0.0318 µM (active); with SK-MEL-2 it was < 0.0123 µM (active); in the assay on RPMI-8226, < 0.01 µM (active); with CCRF-CEM, < 0.0172 µM (active); with MCF7 it was < 0.01 µM (active).
In the case of `Cc1nc2c(n1C)C(=O)c1nc(CBr)[nH]c(=O)c1C2=O`, the GI50 in the assay on UACC-62 was > 100 µM (inactive); with M19-MEL, > 100 µM (inactive); in the assay with LXFL 529, > 100 µM (inactive); in the assay on M14, 35.9 µM (inactive); with SF-539 it was > 100 µM (inactive); with ACHN, > 100 µM (inactive). Further, the GI50 in the assay with HOP-18 is > 100 µM (inactive); in the assay with SF-268, > 100 µM (inactive); in the assay with DMS-114 it was 75.9 µM (inactive); in the assay with RPMI-8226 it was > 100 µM (inactive); with CCRF-CEM, > 100 µM (inactive).
Turning to `O=NN(CC1(O)OCC(O)C(O)C1O)C(Cc1c[nH]c2ccccc12)C(=O)O` (configuration not stated), the GI50 with UACC-62, in the assay on HOP-62, in the assay on M19-MEL, with M14, in the assay on HCC 2998 and with SF-539 was > 100 µM (inactive) throughout. Moreover, the GI50 in the assay with ACHN, in the assay with OVCAR-5, in the assay on DMS-114, with RXF 631, in the assay on SK-MEL-2 and in the assay on RPMI-8226 was > 100 µM (inactive) each time. In addition, the GI50 in the assay with CCRF-CEM was > 100 µM (inactive).
With `CCCCSCCC(N)P(=O)(O)O` (configuration not stated), the GI50 with HOP-62, in the assay on M14, in the assay on HCC 2998, with SR, in the assay on ACHN and in the assay with OVCAR-4 was > 100 µM (inactive) in each case. Besides, the GI50 with NCI/ADR-RES, in the assay on OVCAR-5, with SK-MEL-2, in the assay on RPMI-8226, in the assay on CCRF-CEM and with MCF7 was > 100 µM (inactive) throughout.

Values taken from ChEMBL document CHEMBL1201862, “PubChem BioAssay data set” (2004).
